Patent US11247990B1, “Bicyclic fused pyridine compounds as inhibitors of TAM kinases” (ARRAY BIOPHARMA INC., priority 2017, dated 2022)
Counter-ions that a name gives are not always drawn.

Key:
[1] = target: GST-tagged recombinant human TYRO3 kinase domain (Homo sapiens (Human), UniProt Q06418); test: TYRO3 Enzyme Assay (LanthaScreen Eu Kinase Binding, TR-FRET); conditions: averaged IC50
Method: (§1) Compounds of Formula I were screened for their ability to inhibit TYRO3 kinase using Invitrogen's LanthaScreen™ Eu Kinase Binding technology. […] After a 60-minute incubation at 22° C., the reaction was measured using a PerkinElmer EnVision multimode plate reader via TR-FRET dual wavelength detection, and the percent of control (POC) calculated using a ratiometric emission factor. […] The POC values were fit to a 4 parameter logistic curve and the IC50 value is point where the curve crosses 50 POC.

[2] = target: His-tagged recombinant human MER cytoplasmic domain (Homo sapiens (Human), UniProt Q12866); test: MER Enzyme Assay (LanthaScreen Eu Kinase Binding, TR-FRET); conditions: averaged IC50
His-tagged recombinant human MER cytoplasmic domain, sequence (Q12866 527-999): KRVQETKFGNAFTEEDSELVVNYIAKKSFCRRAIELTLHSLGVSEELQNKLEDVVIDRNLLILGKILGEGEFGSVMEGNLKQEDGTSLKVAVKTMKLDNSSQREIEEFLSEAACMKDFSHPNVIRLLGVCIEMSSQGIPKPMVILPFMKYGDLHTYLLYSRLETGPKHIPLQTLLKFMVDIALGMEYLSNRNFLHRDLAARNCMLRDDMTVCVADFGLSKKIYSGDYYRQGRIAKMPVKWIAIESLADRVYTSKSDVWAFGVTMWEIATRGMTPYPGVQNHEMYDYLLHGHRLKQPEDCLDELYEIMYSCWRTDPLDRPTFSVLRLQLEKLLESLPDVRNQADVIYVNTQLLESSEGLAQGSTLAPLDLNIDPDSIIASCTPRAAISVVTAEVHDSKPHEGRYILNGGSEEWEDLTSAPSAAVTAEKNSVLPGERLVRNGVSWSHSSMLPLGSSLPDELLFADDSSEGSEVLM
Method: as §1, with “inhibit MER” for “inhibit TYRO3”, “(POC) was” for “(POC)”, “values are” for “values were”

GST-tagged recombinant human TYRO3 kinase domain, sequence (Q06418 518-790): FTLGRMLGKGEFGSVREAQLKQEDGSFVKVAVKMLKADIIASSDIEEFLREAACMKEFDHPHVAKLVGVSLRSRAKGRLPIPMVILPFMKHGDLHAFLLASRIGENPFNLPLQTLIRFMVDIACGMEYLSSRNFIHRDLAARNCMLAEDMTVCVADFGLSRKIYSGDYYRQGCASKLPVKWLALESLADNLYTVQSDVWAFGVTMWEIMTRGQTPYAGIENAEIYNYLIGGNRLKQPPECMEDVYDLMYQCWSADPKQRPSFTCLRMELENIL

IC50 [1] [nM]	IC50 [2] [nM]	Structure (SMILES)
1000 to 10000	–	CNc1cc2c(cn1)c(-c1cnn(C)c1)nn2[C@H]1CC[C@@H](Oc2ccc(=O)[nH]n2)CC1 [Example 21, 6-(((1s,4s)-4-(3-(1-methyl-1H-pyrazol-4-yl)-6-(methylamino)-1H-pyrazolo[4,3-c]pyridin-1-yl)cyclohexyl)oxy)pyridazin-3(2H)-one]
1000 to 10000	–	CNc1cc2c(cn1)c(-c1cnn(C)c1)nn2[C@H]1CC[C@H](Oc2ccnc(C)c2)CC1 [Example 121, N-methyl-3-(1-methyl-1H-pyrazol-4-yl)-1-((1r,4r)-4-((2-methylpyridin-4-yl)oxy)cyclohexyl)-1H-pyrazolo[4,3-c]pyridin-6-amine]
1000 to 10000	–	CNc1cc2c(cn1)c(-c1cnn(C)c1)nn2[C@H]1CC[C@@H](Oc2nccc(C)n2)CC1 [Example 126, N-methyl-3-(1-methyl-1H-pyrazol-4-yl)-1-((1s,4s)-4-((4-methylpyrimidin-2-yl)oxy)cyclohexyl)-1H-pyrazolo[4,3-c]pyridin-6-amine]
< 10	–	CNc1cc2c(cn1)c(-c1cnn(C)c1)nn2[C@H]1CC[C@@H](Oc2ccn(C)c(=O)c2)CC1 [Example 24, 1-methyl-4-(((1s,4s)-4-(3-(1-methyl-1H-pyrazol-4-yl)-6-(methylamino)-1H-pyrazolo[4,3-c]pyridin-1-yl)cyclohexyl)oxy)pyridin-2(1H)-one]
1000 to 10000	–	CNc1cc2c(cn1)c(-c1cnn(C)c1)nn2[C@H]1CC[C@@H](Oc2nn(C)c(=O)c(C)c2C)CC1 [Example 8, 2,4,5-trimethyl-6-(((1s,4s)-4-(3-(1-methyl-1H-pyrazol-4-yl)-6-(methylamino)-1H-pyrazolo[4,3-c]pyridin-1-yl)cyclohexyl)oxy)pyridazin-3(2H)-one hydrochloride]
1000 to 10000	–	CNc1cc2c(cn1)c(-c1cnn(C)c1)nn2[C@H]1CC[C@@H](Oc2ccc(=O)n(CCN(C)C)n2)CC1 [Example 18, 2-(2-(dimethylamino)ethyl)-6-(((1s,4s)-4-(3-(1-methyl-1H-pyrazol-4-yl)-6-(methylamino)-1H-pyrazolo[4,3-c]pyridin-1-yl)cyclohexyl)oxy)pyridazin-3(2H)-one]
1000 to 10000	–	CNc1cc2c(cn1)c(-c1cnn(C)c1)nn2[C@H]1CC[C@@H](Oc2ccc(C(=O)NC(C)C)cc2)CC1 [Example 458, N-isopropyl-4-(((1s,4s)-4-(3-(1-methyl-1H-pyrazol-4-yl)-6-(methylamino)-1H-pyrazolo[4,3-c]pyridin-1-yl)cyclohexyl)oxy)benzamide]
1000 to 10000	–	CNc1cc2c(cn1)c(-c1ccn(C)n1)cn2[C@H]1CC[C@@H](Oc2ccc(=O)n(C)n2)CC1 [Example 74, 2-methyl-6-(((1s,4s)-4-(3-(1-methyl-1H-pyrazol-3-yl)-6-(methylamino)-1H-pyrrolo[3,2-c]pyridin-1-yl)cyclohexyl)oxy)pyridazin-3(2H)-one]
1000 to 10000	–	CCn1nc(O[C@H]2CC[C@@H](n3nc(-c4cnn(C)c4)c4cnc(NC)cc43)CC2)ccc1=O [Example 14, 2-ethyl-6-(((1s,4s)-4-(3-(1-methyl-1H-pyrazol-4-yl)-6-(methylamino)-1H-pyrazolo[4,3-c]pyridin-1-yl)cyclohexyl)oxy)pyridazin-3(2H)-one]
–	< 10	CCNc1cc2c(cn1)c(-c1cnn(C)c1)nn2[C@H]1CC[C@@H](Oc2cc(C#N)ccn2)CC1 [Example 200, 2-(((1s,4s)-4-(6-(ethylamino)-3-(1-methyl-1H-pyrazol-4-yl)-1H-pyrazolo[4,3-c]pyridin-1-yl)cyclohexyl)oxy)isonicotinonitrile]
–	< 10	CCNc1cc2c(cn1)c(-c1cnn(C)c1)nn2[C@H]1CC[C@@H](Oc2cccnc2C(C)C)CC1 [Example 192, N-ethyl-1-((1s,4s)-4-((2-isopropylpyridin-3-yl)oxy)cyclohexyl)-3-(1-methyl-1H-pyrazol-4-yl)-1H-pyrazolo[4,3-c]pyridin-6-amine]
–	< 10	CCNc1cc2c(cn1)c(-c1ccc3c(c1)CNC3=O)nn2[C@H]1CC[C@@H](Oc2cn(C)nc2C)CC1 [Example 230, 5-(1-((1s,4s)-4-((1,3-dimethyl-1H-pyrazol-4-yl)oxy)cyclohexyl)-6-(ethylamino)-1H-pyrazolo[4,3-c]pyridin-3-yl)isoindolin-1-one]
–	< 10	CCNc1cc2c(cn1)c(-c1cnn(C(CO)CO)c1)nn2[C@H]1CC[C@@H](Oc2ccccc2F)CC1 [Example 411, 2-(4-(6-(ethylamino)-1-((1s,4s)-4-(2-fluorophenoxy)cyclohexyl)-1H-pyrazolo[4,3-c]pyridin-3-yl)-1H-pyrazol-1-yl)propane-1,3-diol]
–	< 10	CCNc1cc2c(cn1)c(-c1ccc(CN3C[C@H](C)[C@@H](O)C3)cc1)nn2[C@H]1CC[C@@H](Oc2ccc(=O)n(C)n2)CC1 [Example 96, 6-(((1S,4s)-4-(6-(ethylamino)-3-(4-(((3R,4S)-3-hydroxy-4-methylpyrrolidin-1-yl)methyl)phenyl)-1H-pyrazolo[4,3-c]pyridin-1-yl)cyclohexyl)oxy)-2-methylpyridazin-3(2H)-one]
–	< 10	CCNc1cc2c(cn1)c(-c1cnn(C(CO)CO)c1)nn2[C@H]1CC[C@@H](Oc2ccc(F)cc2)CC1 [Example 413]
–	< 10	CCNc1cc2c(cn1)c(-c1cnn(C(C)(C)C#N)c1)nn2[C@H]1CC[C@@H](Oc2ccccc2F)CC1 [Example 400, 2-(4-(6-(ethylamino)-1-((1s,4s)-4-(2-fluorophenoxy)cyclohexyl)-1H-pyrazolo[4,3-c]pyridin-3-yl)-1H-pyrazol-1-yl)-2-methylpropanenitrile]
–	< 10	CCNc1cc2c(cn1)c(-c1ccc(CN3CCN(CCOC)CC3)cc1)nn2[C@H]1CC[C@@H](Oc2ccc(=O)n(C)n2)CC1 [Example 82, 6-(((1s,4s)-4-(6-(ethylamino)-3-(4-((4-(2-methoxyethyl)piperazin-1-yl)methyl)phenyl)-1H-pyrazolo[4,3-c]pyridin-1-yl)cyclohexyl)oxy)-2-methylpyridazin-3(2H)-one]
–	< 10	CNc1cc2c(cn1)c(-c1cnn(C)c1)nn2[C@H]1CC[C@@H](Oc2cccnc2OC)CC1 [Example 142, 1-((1s,4s)-4-((2-methoxypyridin-3-yl)oxy)cyclohexyl)-N-methyl-3-(1-methyl-1H-pyrazol-4-yl)-1H-pyrazolo[4,3-c]pyridin-6-amine]
–	< 10	CCNc1cc2c(cn1)c(-c1cnn(C)c1)nn2[C@H]1CC[C@@H](Oc2cccnc2C2CC2)CC1 [Example 186, 1-((1s,4s)-4-((2-cyclopropylpyridin-3-yl)oxy)cyclohexyl)-N-ethyl-3-(1-methyl-1H-pyrazol-4-yl)-1H-pyrazolo[4,3-c]pyridin-6-amine]
–	< 10	CCNc1cc2c(cn1)c(-c1cnn(C(CO)CO)c1)nn2[C@H]1CC[C@@H](Oc2ccc(F)c(F)c2)CC1 [Example 418, 2-(4-(1-((1s,4s)-4-(3,4-difluorophenoxy)cyclohexyl)-6-(ethylamino)-1H-pyrazolo[4,3-c]pyridin-3-yl)-1H-pyrazol-1-yl)propane-1,3-diol]
–	< 10	CCNc1cc2c(cn1)c(-c1cnn(C(C)(C)C#N)c1)nn2[C@H]1CC[C@@H](Oc2nccnc2C)CC1 [Example 181, 2-(4-(6-(ethylamino)-1-((1s,4s)-4-((3-methylpyrazin-2-yl)oxy)cyclohexyl)-1H-pyrazolo[4,3-c]pyridin-3-yl)-1H-pyrazol-1-yl)-2-methylpropanenitrile]
–	< 10	CCNc1cc2c(cn1)c(-c1ccn(C)c(=O)c1)nn2[C@H]1CC[C@@H](Oc2ccccc2F)CC1 [Example 398, 4-(6-(ethylamino)-1-((1s,4s)-4-(2-fluorophenoxy)cyclohexyl)-1H-pyrazolo[4,3-c]pyridin-3-yl)-1-methylpyridin-2(1H)-one]
–	< 10	CCNc1cc2c(cn1)n(-c1ccc(CN3CCN(C)CC3)cc1)nc2[C@H]1CC[C@@H](Oc2ccccc2F)CC1 [Example 482, N-ethyl-3-((1s,4s)-4-(2-fluorophenoxy)cyclohexyl)-1-(4-((4-methylpiperazin-1-yl)methyl)phenyl)-1H-pyrazolo[3,4-c]pyridin-5-amine]
–	< 10	CCNc1cc2c(cn1)c(-c1cnn(C[C@H](O)C(C)(C)O)c1)nn2[C@H]1CC[C@@H](Oc2cccc(Cl)c2)CC1 [Example 441, (S)-1-(4-(1-((1s,4R)-4-(3-chlorophenoxy)cyclohexyl)-6-(ethylainino)-1H-pyrazolo[4,3-c]pyridin-3-yl)-1H-pyrazol-1-yl)-3-methylbutane-2,3-diol]
–	< 10	CCNc1cc2c(cn1)c(-c1cnn(C[C@@H](O)CO)c1)nn2[C@H]1CC[C@@H](Oc2cccc(C)c2F)CC1 [Example 438, (R)-3-(4-(6-(ethylamino)-1-((1s,4S)-4-(2-fluoro-3-methylphenoxy)cyclohexyl)-1H-pyrazolo[4,3-c]pyridin-3-yl)-1H-pyrazol-1-yl)propane-1,2 diol]
–	< 10	CNc1cc2c(cn1)c(-c1cnn(C)c1)nn2[C@H]1CC[C@@H](Oc2c(F)cccc2F)CC1 [Example 356, 1-((1s,4s)-4-(2,6-difluorophenoxy)cyclohexyl)-N-methyl-3-(1-methyl-1H-pyrazol-4-yl)-1H-pyrazolo[4,3-c]pyridin-6-amine]

Structure (SMILES)	IC50 [1] [nM]	IC50 [2] [nM]
CNc1cc2c(cn1)c(-c1cnn(C)c1)nn2[C@H]1CC[C@@H](Oc2ccc(C(=O)N(C)C)cc2)CC1 [Example 457, N,N-dimethyl-4-(((1s,4s)-4-(3-(1-methyl-1H-pyrazol-4-yl)-6-(methylamino)-1H-pyrazolo[4,3-c]pyridin-1-yl)cyclohexyl)oxy)benzamide]	1000 to 10000	–
